# Results published in PMC7725003, “Systematically Studying the Optimal Amino Acid Distribution Patterns of the Amphiphilic Structure by Using the Ultrashort Amphiphiles” (Frontiers in Microbiology, 2020).
# Where no end group is shown, it is not given here.
# Columns and labels:
# [1] = test system: P. aeruginosa ATCC 27853; assay type: cell-based, Pseudomonas aeruginosa; conditions: after 30 passages in sub-MBC concentration
# Description: Finally, P. aeruginosa ATCC 27853 was used as the model of the drug resistance study. […] The MBC values of the drugs against every two passage’s cells were tested. As a control, MBCs were also tested using cells that were serially passaged in fresh MHB without drugs. The assay was conducted independently in triplicate with three biological replicates.
# [2] = test system: E. coli 25922; assay type: cell-based, Escherichia coli; conditions: 25922, 24 h
# Summary of the method: (§1)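 Broth microdilution adapted from NCCLS. Peptide series in 0.2% BSA meets an equal volume of MHB culture at 0.5–1 × 10^6 CFU mL^–1; 24 h incubation at 37°C; MIC read as 95% growth inhibition at 492 nm.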
# [3] = test system: E. coli O78; assay type: cell-based, Escherichia coli; conditions: O78, 24 h
# Summary of the method: as §1
# [4] = test system: E. coli UB1005; assay type: cell-based, Escherichia coli; conditions: UB1005, 24 h
# Summary of the method: as §1
# [5] = test system: S. typhimurium 14028; assay type: cell-based, Salmonella typhimurium; conditions: 14028, 24 h
# Summary of the method: as §1
# [6] = test system: S. typhimurium 7731; assay type: cell-based, Salmonella typhimurium; conditions: 7731, 24 h
# Summary of the method: as §1
# [7] = test system: S. pullorum 7913; assay type: cell-based, Salmonella pullorum; conditions: 7913, 24 h
# Summary of the method: as §1
# [8] = test system: P. aeruginosa 27853; assay type: cell-based, Pseudomonas aeruginosa; conditions: 27853, 24 h
# Summary of the method: as §1
# [9] = test system: E. coli K88; conditions: for MIC: MHB, 24 h 37°C, 95% growth inhibition; for MBC: value in brackets, >99.9% of cells killed
# Summary of the method: (§2)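 Peptides were serially diluted in 0.2% BSA and added to mid-logarithmic cells diluted in MHB to 0.5–1 × 10^6 CFU mL^–1. Assays followed an adapted NCCLS protocol.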
# [10] = test system: E. coli K99; conditions: for MIC: MHB, 24 h 37°C, 95% growth inhibition; for MBC: value in brackets, >99.9% of cells killed
# Summary of the method: as §2
# [11] = test system: Gram-negative bacteria; conditions: for GM MIC: geometric mean of MICs, 9 Gram-negative strains (Table 2); for TI, Gram-negative bacteria: therapeutic index TI = MHC/GM MIC
# Summary of the method: (§3)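 Broth microdilution adapted from NCCLS: mid-log bacteria diluted in MHB to 0.5–1 × 10^6 CFU mL^–1, mixed with peptides serially diluted in 0.2% BSA. After 24 h at 37°C, MIC taken as the lowest concentration inhibiting 95% of growth by absorbance at 492 nm. Assays repeated more than 3 times.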
# [12] = test system: Gram-positive bacteria; conditions: for GM MIC: geometric mean of MICs, 7 Gram-positive strains (Table 2); for TI, Gram-positive bacteria: therapeutic index TI = MHC/GM MIC
# Summary of the method: as §3
# [13] = test system: S. aureus 25923; assay type: cell-based, Staphylococcus aureus; conditions: 25923, 24 h
# Summary of the method: as §1
# [14] = test system: S. aureus 29213; assay type: cell-based, Staphylococcus aureus; conditions: 29213, 24 h
# Summary of the method: as §1
# [15] = test system: S. epidermidis 12228; assay type: cell-based, Staphylococcus epidermidis; conditions: 12228, 24 h
# Summary of the method: as §1
# [16] = test system: MRSA 43300; assay type: cell-based, methicillin-resistant S. aureus; conditions: 43300, 24 h
# Summary of the method: as §1
# [17] = test system: B. subtilis 63501; assay type: cell-based, Bacillus subtilis; conditions: 63501, 24 h
# Summary of the method: as §1
# [18] = test system: E. faecalis 29212; assay type: cell-based, Enterococcus faecalis; conditions: 29212, 24 h
# Summary of the method: as §1
# [19] = test system: Listeria monocytogenes CGMCC 1.1075; assay type: cell-based; conditions: CGMCC 1.1075, 24 h
# Summary of the method: as §1
# [20] = test system: all of the tested bacterial strains; assay: Geometric mean of MICs, all tested bacterial strains; assay type: cell-based; conditions: for GM, All: geometric mean of MICs across all tested strains; for TI, All: therapeutic index TI = MHC/GM MIC
# Summary of the method: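 Mid-log bacteria at 0.5–1 × 10^6 CFU mL^–1 in MHB with peptides serially diluted in 0.2% BSA, 24 h at 37°C. MIC is the lowest concentration giving 95% growth inhibition by A492. MBC is the lowest giving >99.9% kill on agar subculture, and the GM is taken over all strains.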
# [21] = test system: E. coli ATCC 25922; assay: Salt sensitivity assay (MIC); assay type: cell-based, Escherichia coli; conditions: for MIC, FeCl3: 4 μM FeCl3; for MIC, NH4Cl: 6 μM NH4Cl; for MIC, ZnCl2: 8 μM ZnCl2; for MIC, MgCl2: 1 mM MgCl2; for MIC, CaCl2: 2 mM CaCl2; for MIC, KCl: 4.5 mM KCl; for MIC, NaCl: 150 mM NaCl; for MIC, Control: no added salt, three independent assays
# Summary of the method: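 The salt sensitivity of peptides was tested against E. coli ATCC 25922 using a modified NCCLS broth microdilution MIC method. Mid-log bacteria were diluted in MHB to 0.5–1 × 10^6 CFU mL^–1 and mixed in equal volumes with peptides serially diluted in 0.2% BSA in 96-well plates. Physiological salt was added where specified, and the assay was done three independent times.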
# [22] = test system: S. aureus 29213; assay: Salt sensitivity assay (MIC); assay type: cell-based, Staphylococcus aureus; conditions: for MIC, FeCl3: 4 μM FeCl3; for MIC, NH4Cl: 6 μM NH4Cl; for MIC, ZnCl2: 8 μM ZnCl2; for MIC, MgCl2: 1 mM MgCl2; for MIC, CaCl2: 2 mM CaCl2; for MIC, KCl: 4.5 mM KCl; for MIC, NaCl: 150 mM NaCl; for MIC, Control: no added salt, three independent assays
# Summary of the method: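 MICs determined by broth microdilution in MHB with 0.5–1 × 10^6 CFU/mL, peptides serially diluted in 0.2% BSA, 24 h at 37°C. Medium supplemented with physiological salts (150 mM NaCl, 4.5 mM KCl, 6 μM NH4Cl, 8 μM ZnCl2, 1 mM MgCl2, 2mM CaCl2, 4 μM FeCl3). MIC = lowest concentration inhibiting 95% growth (A492).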
# [23] = test system: Gram-negative bacteria; conditions: geometric mean of MBCs, 9 Gram-negative strains (Table 2)
# [24] = test system: Gram-positive bacteria; conditions: geometric mean of MBCs, 7 Gram-positive strains (Table 2)
compound,measurement,setting,value
"CC(C)(O/N=C(\C(=O)N[C@@H]1C(=O)N2C(C(=O)[O-])=C(C[n+]3ccccc3)CS[C@H]12)c1csc(N)n1)C(=O)O [ceftazidime, reference compound]",increase of MBC value,[1],64 fold
RLRLRRLLL-NH2 [L9],MBC,[2],32 µM
same,MIC,[2],16 µM
same,MBC,[3],64 µM
same,MIC,[3],32 µM
same,MBC,[4],128 µM
same,MIC,[4],64 µM
same,MBC,[5],128 µM
same,MIC,[5],64 µM
same,MBC,[6],128 µM
same,MIC,[6],64 µM
same,MBC,[7],64 µM
same,MIC,[7],32 µM
same,MIC,[8],> 64 µM
same,MIC,[9],16 µM
same,MBC,[9],32 µM
same,MIC,[10],16 µM
same,MBC,[10],32 µM
same,GM MIC,[11],37.33 µM
same,"TI, Gram-negative bacteria",[11],6.86
same,GM MIC,[12],64.00 µM
same,"TI, Gram-positive bacteria",[12],4.00
same,MIC,[13],> 64 µM
same,MIC,[14],>64 µM
same,MIC,[15],> 64 µM
same,MIC,[16],>64 µM
same,MBC,[17],16 µM
same,MIC,[17],8 µM
same,MIC,[18],> 64 µM
same,MBC,[19],32 µM
same,MIC,[19],16 µM
same,"GM, All",[20],47.26 µM
same,"TI, All",[20],5.42
same,"MIC, FeCl3",[21],16 µM
same,"MIC, NH4Cl",[21],32 µM
same,"MIC, ZnCl2",[21],16 µM
same,"MIC, MgCl2",[21],32 µM
same,"MIC, CaCl2",[21],> 64 µM
same,"MIC, KCl",[21],16 µM
same,"MIC, NaCl",[21],> 64 µM
same,"MIC, Control",[21],16 µM
same,"MIC, FeCl3",[22],> 64 µM
same,"MIC, NH4Cl",[22],> 64 µM
same,"MIC, ZnCl2",[22],> 64 µM
same,"MIC, MgCl2",[22],> 64 µM
same,"MIC, CaCl2",[22],> 64 µM
same,"MIC, KCl",[22],> 64 µM
same,"MIC, NaCl",[22],> 64 µM
same,"MIC, Control",[22],> 64 µM
same,GM MBC,[23],69.12 µM
same,GM MBC,[24],78.02 µM
RRLLLLRRL-NH2 [L7],MIC,[2],> 64 µM
same,MBC,[3],128 µM
same,MIC,[3],64 µM
same,MIC,[4],>64 µM
same,MIC,[5],> 64 µM
same,MIC,[6],> 64 µM
same,MIC,[7],>64 µM
same,MIC,[8],> 64 µM
same,MIC,[9],32 µM
same,MBC,[9],64 µM
same,MIC,[10],64 µM
same,MBC,[10],128 µM
same,GM MIC,[11],94.06 µM
same,"TI, Gram-negative bacteria",[11],2.72
same,GM MIC,[12],64.00 µM
same,"TI, Gram-positive bacteria",[12],4.00
same,MIC,[13],> 64 µM
same,MIC,[14],>64 µM
same,MIC,[15],> 64 µM
same,MIC,[16],>64 µM
same,MBC,[17],16 µM
same,MIC,[17],8 µM
same,MIC,[18],> 64 µM
same,MBC,[19],32 µM
same,MIC,[19],16 µM
same,"GM, All",[20],79.48 µM
same,"TI, All",[20],3.22
same,"MIC, FeCl3",[21],> 64 µM
same,"MIC, NH4Cl",[21],> 64 µM
same,"MIC, ZnCl2",[21],> 64 µM
same,"MIC, MgCl2",[21],> 64 µM
same,"MIC, CaCl2",[21],> 64 µM
same,"MIC, KCl",[21],> 64 µM
same,"MIC, NaCl",[21],> 64 µM
same,"MIC, Control",[21],> 64 µM
same,"MIC, FeCl3",[22],> 64 µM
same,"MIC, NH4Cl",[22],> 64 µM
same,"MIC, ZnCl2",[22],> 64 µM
same,"MIC, MgCl2",[22],> 64 µM
same,"MIC, CaCl2",[22],> 64 µM
same,"MIC, KCl",[22],> 64 µM
same,"MIC, NaCl",[22],> 64 µM
same,"MIC, Control",[22],> 64 µM
same,GM MBC,[23],118.51 µM
same,GM MBC,[24],78.02 µM
RRLLLRLRL-NH2 [L8],MBC,[2],32 µM
same,MIC,[2],16 µM
same,MBC,[3],16 µM
same,MIC,[3],8 µM
same,MBC,[4],64 µM
same,MIC,[4],32 µM
same,MBC,[5],64 µM
same,MIC,[5],32 µM
same,MBC,[6],64 µM
same,MIC,[6],32 µM
same,MBC,[7],16 µM
same,MIC,[7],8 µM
same,MBC,[8],128 µM
same,MIC,[8],64 µM
same,MIC,[9],4 µM
same,MBC,[9],8 µM
same,MIC,[10],16 µM
same,MBC,[10],32 µM
same,GM MIC,[11],17.28 µM
same,"TI, Gram-negative bacteria",[11],14.81
same,GM MIC,[12],23.78 µM
same,"TI, Gram-positive bacteria",[12],10.77
same,MBC,[13],128 µM
same,MIC,[13],64 µM
same,MBC,[14],64 µM
same,MIC,[14],32 µM
same,MBC,[15],64 µM
same,MIC,[15],32 µM
same,MBC,[16],64 µM
same,MIC,[16],32 µM
same,MBC,[17],8 µM
same,MIC,[17],4 µM
same,MIC,[18],> 64 µM
same,MBC,[19],8 µM
same,MIC,[19],4 µM
same,"GM, All",[20],19.87 µM
same,"TI, All",[20],12.88
same,"MIC, FeCl3",[21],16 µM
same,"MIC, NH4Cl",[21],8 µM
same,"MIC, ZnCl2",[21],8 µM
same,"MIC, MgCl2",[21],32 µM
same,"MIC, CaCl2",[21],> 64 µM
same,"MIC, KCl",[21],32 µM
same,"MIC, NaCl",[21],64 µM
same,"MIC, Control",[21],16 µM
same,"MIC, FeCl3",[22],32 µM
same,"MIC, NH4Cl",[22],32 µM
same,"MIC, ZnCl2",[22],32 µM
same,"MIC, MgCl2",[22],64 µM
same,"MIC, CaCl2",[22],> 64 µM
same,"MIC, KCl",[22],64 µM
same,GM MBC,[23],32.00 µM
same,GM MBC,[24],43.07 µM
